In a compilation of properties of binary mixtures (doi:10.1021/je00020a016):

Assay: excess molar enthalpy (molar enthalpy of mixing); xn = mol fraction of the nth substance listed
Conditions: 100 kPa

CCOC(=O)OCC + CC1COC(=O)O1
excess molar enthalpy [kcal/mol]
Conditions	298.15 K	313.15 K
x2 = 0.0482	–	0.0351
x2 = 0.0668	0.033	–
x2 = 0.0919	–	0.0559
x2 = 0.1066	0.0504	–
x2 = 0.1518	0.0631	–
x2 = 0.1528	–	0.0698
x2 = 0.1926	0.07	–
x2 = 0.1933	–	0.0755
x2 = 0.2623	0.0784	–
x2 = 0.2644	–	0.0846
x2 = 0.3231	0.0593	–
x2 = 0.4172	0.0605	–
x2 = 0.4183	–	0.0915
x2 = 0.4884	0.0822	–
x2 = 0.4895	–	0.0894
x2 = 0.5888	0.0765	–
x2 = 0.6824	0.066	–
x2 = 0.742	0.0583	0.0607
x2 = 0.8118	0.0452	–
x2 = 0.8519	0.0373	0.0387
x2 = 0.8962	0.0263	0.0284
x2 = 0.9452	0.0139	0.0151
x2 = 0.9718	0.00765	0.00789

CCOC(=O)OCC + COC(=O)OC
excess molar enthalpy [kcal/mol]
Conditions	298.15 K	313.15 K
x2 = 0.0565	0.00765	0.00645
x2 = 0.107	0.0148	–
x2 = 0.1522	–	0.0179
x2 = 0.1932	–	0.0213
x2 = 0.1934	0.0234	–
x2 = 0.2643	–	0.0272
x2 = 0.3241	0.0349	–
x2 = 0.4181	–	0.0368
x2 = 0.4892	–	0.0387
x2 = 0.5896	–	0.0387
x2 = 0.6831	–	0.0349
x2 = 0.6834	0.0373	–
x2 = 0.7418	–	0.0315
x2 = 0.7421	0.0335	–
x2 = 0.8117	–	0.0265
x2 = 0.8119	0.027	–
x2 = 0.8518	–	0.021
x2 = 0.8962	0.017	–
x2 = 0.8995	–	0.0158
x2 = 0.92	–	0.0124
x2 = 0.9201	0.0141	–
x2 = 0.9453	0.00932	–
x2 = 0.9718	–	0.00454
x2 = 0.9719	0.00478	–

CC1COC(=O)O1 (stereo not drawn) + COC(=O)OC
Conditions	excess molar enthalpy [kcal/mol]
298.15 K, x1 = 0.0474	0.0131
298.15 K, x1 = 0.0905	0.0203
298.15 K, x1 = 0.1106	0.0227
298.15 K, x1 = 0.1428	0.0253
298.15 K, x1 = 0.1993	0.0272
298.15 K, x1 = 0.2491	0.0272
298.15 K, x1 = 0.3989	0.0244
298.15 K, x1 = 0.4988	0.0217
298.15 K, x1 = 0.5989	0.0184
298.15 K, x1 = 0.6656	0.0158
298.15 K, x1 = 0.7491	0.0127
298.15 K, x1 = 0.7993	0.0103
298.15 K, x1 = 0.8566	0.00741
298.15 K, x1 = 0.8884	0.0055
298.15 K, x1 = 0.9228	0.00382
298.15 K, x1 = 0.9598	0.00191
313.15 K, x1 = 0.0658	0.0217
313.15 K, x1 = 0.1429	0.0284
313.15 K, x1 = 0.2001	0.0296
313.15 K, x1 = 0.2502	0.0294
313.15 K, x1 = 0.3335	0.0284
313.15 K, x1 = 0.4002	0.0268
313.15 K, x1 = 0.5002	0.0232
313.15 K, x1 = 0.6003	0.0191
313.15 K, x1 = 0.6669	0.0167
313.15 K, x1 = 0.7502	0.0129
313.15 K, x1 = 0.8001	0.0108
313.15 K, x1 = 0.8563	0.00813
313.15 K, x1 = 0.889	0.00598
313.15 K, x1 = 0.96	0.00215
